Results on five molecules are retold here after patent publication US9328138B2 (priority 2011, dated 2016).

The target in assay [1] is T1, HCV genotype 1b (BK) NS3 modified enzyme with a R155K mutation (Hepatitis C virus genotype 1b, UniProt P26663, R1181K).
T1 construct: HCV genotype 1b (BK) NS3 modified enzyme
The experiment in a line: HCV NS3 protease time-resolved fluorescence (TRF) assay, genotype 1b R155K. The assay is classed as biochemical. The note with it: Ki 1b R155K, genotype 1b (BK) NS3 R155K; single value. The gist of the method:
(§1)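 Inhibitor titrations are mixed with NS3/NS4A in pH 7.5 HEPES buffer containing 10 mM DTT and 15% glycerol for 10 min before substrate (25 nM final) is added. After 6 h at room temperature, delayed fluorescence is read and fitted to a four-parameter curve for IC50.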

The target in assay [2] is HCV NS3 protease genotype 3a (3A-1) (Hepatitis C virus genotype 3a, UniProt Q81258). The experiment in a line: HCV NS3 protease time-resolved fluorescence (TRF) assay, genotype 3a. The class given is biochemical. The note with it: Ki 3a. The gist of the method:
as §1

In the case of `C=C[C@@H]1C[C@]1(NC(=O)[C@@H]1C[C@@H]2CN1C(=O)[C@H](C(C)(C)C)NC(=O)O[C@@H]1C[C@H]1CCCCCc1c(nc3ccccc3c1OCCN1CCOCC1)O2)C(=O)NS(=O)(=O)C1(C)CC1` [Example 113, (1aR,5S,8S,10R,22aR)-5-tert-butyl-N-[(1R,2S)-2-ethenyl-1-{[(1-methylcyclopropyl)sulfonyl]carbamoyl}cyclopropyl]-17-[2-(morpholin-4-yl)ethoxy]-3,6-dioxo-1,1a,3,4,5,6,9,10,18,19,20,21,22,22a-tetradecahydro-8H-7,10-methanocyclopropa[18,19][1,10,3,6]dioxadiazacyclononadecino[11,12-b]quinoline-8-carboxamide], the results for the Ki in assay [1] and in assay [2] were 0.09 nM and 1.6 nM, respectively.

As for `C=C[C@@H]1C[C@]1(NC(=O)[C@@H]1C[C@@H]2CN1C(=O)[C@H](C(C)(C)C)NC(=O)O[C@@H]1C[C@H]1CCCCCc1c(nc3ccccc3c1OCCCN(C)C)O2)C(=O)NS(=O)(=O)C1(C)CC1` [Example 114, (1aR,5S,8S,10R,22aR)-5-tert-butyl-17-[3-(dimethylamino)propoxy]-N-[(1R,2S)-2-ethenyl-1-{[(1-methylcyclopropyl)sulfonyl]carbamoyl}cyclopropyl]-3,6-dioxo-1,1a,3,4,5,6,9,10,18,19,20,21,22,22a-tetradecahydro-8H-7,10-methanocyclo propa[18,19][1,10,3,6]dioxadiazacyclo-nonadecino[11,12-b] quinoline-8-carboxamide], the inhibition constant (Ki) in assay [1] came out at 0.051 nM; in assay [2] it was 0.25 nM.

Take `C=C[C@@H]1C[C@]1(NC(=O)[C@@H]1C[C@@H]2CN1C(=O)[C@H](C(C)(C)C)NC(=O)O[C@@H]1C[C@H]1CCCCCc1c(nc3ccccc3c1OCCCN1CCCCC1)O2)C(=O)NS(=O)(=O)C1(C)CC1` [Example 115, (1aR,5S,8S,10R,22aR)-5-tert-butyl-N-[(1R,2S)-2-ethenyl-1-{[(1-methylcyclopropyl)sulfonyl]carbamoyl}cyclopropyl]-3,6-dioxo-17-[3-(piperidin-1-yl)propoxy]-1,1a,3,4,5,6,9,10,18,19,20,21,22,22a-tetradeca hydro-8H-7,10-methano cyclopropa[18,19][1,10,3,6] dioxadiazacyclononadecino [11,12-b]quinoline-8-carboxamide]: the values for the inhibitory constant (Ki) in assay [1] and in assay [2] were 0.057 nM and 0.25 nM, respectively.

For `C=C[C@@H]1C[C@]1(NC(=O)[C@@H]1C[C@@H]2CN1C(=O)[C@H](C(C)(C)C)NC(=O)O[C@@H]1C[C@H]1CCCCCc1c(nc3ccccc3c1OCCCN1CCOCC1)O2)C(=O)NS(=O)(=O)C1(C)CC1` [Example 116, (1aR,5S,8S,10R,22aR)-5-tert-butyl-N-[(1R,2S)-2-ethenyl-1-{[(1-methylcyclopropyl)sulfonyl]carbamoyl}cyclopropyl]-17-[3-(morpholin-4-yl)propoxy]-3,6-dioxo-1,1a,3,4,5,6,9,10,18,19,20,21, 22,22a-tetradeca hydro-8H-7,10-methanocyclopropa [18,19][1,10,3,6]dioxadiazacyclo nonadecino[11,12-b]quinoline-8-carboxamide], the inhibition constant Ki in assay [1] worked out at 0.17 nM; in assay [2], 1.6 nM.

Consider `C=C[C@@H]1C[C@]1(NC(=O)[C@@H]1C[C@@H]2CN1C(=O)[C@H](C(C)(C)C)NC(=O)O[C@@H]1C[C@H]1CCCCCc1c(nc3ccccc3c1OCCCN1CCCC1)O2)C(=O)NS(=O)(=O)C1(C)CC1` [Example 117, (1aR,5S,8S,10R,22aR)-5-tert-butyl-N-[(1R,2S)-2-ethenyl-1-{[(1-methylcyclopropyl)sulfonyl]carbamoyl}cyclopropyl]-3,6-dioxo-17-[3-(pyrrolidin-1-yl)propoxy]-1,1a,3,4,5,6,9,10,18,19,20,21,22,22a-tetradeca hydro-8H-7,10-methano cyclopropa[18,19][1,10,3,6] dioxadiazacyclononadecino [11,12-b]quinoline-8-carboxamide], for which the Ki turned out to be 0.08 nM in assay [1] and 0.93 nM in assay [2].
